In patent publication US20090306150A1, “CARBOXYLIC ACID SALTS OF 2-AMINO-3-CARBETHOXYAMINO-6-(4-FLUORO-BENZYLAMINO)-PYRIDINE” (AWD. PHARMA GMBH & CO. KG, priority 2008, published 2009):

How the values were obtained:
Assay type in all cases: physicochemical
[1] = Crystal shape of flupirtine salts (light microscope photomicrographs)
Text: As referred to herein, the “aspect ratio” denotes the ratio of the second largest dimension of a crystal particle (i.e. its width) to the largest dimension of the crystal particle (i.e. its length). The aspect ratio may be determined from a representative number of crystals by visual observation under a light microscope. The photomicrographs were obtained by gently exerting pressure on the sample material with a mortar and pistil, transferring the sample material to a microscope slide and covering it with immersion oil, followed by observation and image recording on an Optech Biostar microscope equipped with a polarisation filter. The magnification was 200, i.e. at a width of the photomicrograph of 14 cm, 1 cm of said photograph corresponds to about 0.06 mm.

[2] = Dissolution profiles of flupirtine acid addition salts in ethanol (compacted substance); conditions: 100 mg compacted, 1000 ml ethanol, 37° C., basket 50 UpM
Description: The dissolution in Ethanol was measured using compacted substance.
100 mg substance was compacted using a hydraulic press. Diameter of cake: 8.9 mm; pressure 20 kp/cm^2 for 15 sec. Liberation parameter:
Basket, 50 UpM, 1000 ml medium 37° C. Apparatus: DT6R Dissolution Tester (ERWEKA).
At given time points 5.0 ml solution were taken and measured vs. reference at 244 nm at a spectral photometer. The solution was refilled with 5 ml solvent. The amount of liberated substance at given time points was calculated using a response factor (absorption/mg substance). Measuring error: 10%.

[3] = Stability towards oxidation and discoloration when exposed to air; conditions: storage period of 30 days at room temperature, in contrast to maleate and gluconate
Text: Discoloration can take takes place after prolonged storage or when exposed to air. Discoloration is regarded as leading to an active pharmaceutical ingredient (API) of low pharmaceutical quality and can be avoided by using a protective atmosphere in the production process and using expensive packaging materials for the finished drug forms. The discoloration effect is known for flupirtine hydrochloride, flupiritine gluconate and both polymorphs of flupirtine maleate.

[4] = Storage stability of flupirtine salts (HPLC); conditions: for Decrease of the area under the peak of the flupirtine signal: 0 to 14 days of storage at room temperature under normal air; for Flupirtine signal after 14 days (area under the peak in %): HPLC after 14 days of storage at room temperature under normal air, about 21% oxygen; for Flupirtine signal after 0 days (area under the peak in %): HPLC after preparation of the salts
Description: [table] HPLC was performed after preparation of the salts and repeated after 14 days of storage at room temperature under normal air containing about 21% oxygen.

[5] = Determining the bulk density of flupirtine salts; conditions: volume per 100.0 g of sample material, about 4 g in 10 ml measuring cylinder, not compacted
Description: The bulk density was determined as follows: Without increasing its density, sample material (about 4 grams) was introduced into a 10 ml measuring cylinder (±0.2 ml). The volume and the exact weight of the introduced sample material were determined. The bulk density was calculated as volume per 100.0 g of sample material.

[6] = Dissolution profiles of flupirtine acid addition salts in ethanol (compacted substance); conditions: after 10 min stirring in ethanol

Row | Structure (SMILES) | Crystal shape [1] | Amount of substance dissolved ([2]; 5 min) [mg] | Amount of substance dissolved ([2]; 10 min) [mg] | Amount of substance dissolved ([2]; 15 min) [mg] | Amount of substance dissolved ([2]; 20 min) [mg] | Amount of substance dissolved ([2]; 25 min) [mg] | Amount of substance dissolved ([2]; 30 min) [mg] | Amount of substance dissolved ([2]; 60.25 min) [mg] | Stability towards oxidation and towards discoloration [3] | Decrease of the area under the peak of the flupirtine signal [4] [%] | Flupirtine signal after 14 days (area under the peak in %) [4] [%] | Flupirtine signal after 0 days (area under the peak in %) [4] [%] | Bulk density (ml/100 g substance) [5] [ml/100 g substance] | Dissolution in ethanol (in words) [6]
1 | CC(=O)O.CCOC(=O)Nc1ccc(NCc2ccc(F)cc2)nc1N [Flupirtine acetate, 2-amino-3-carbethoxyamino-6-(4-fluoro-benzylamino)-pyridine acetate] | Hexagons and polygonal plates | 50.3 | 108.3 | 103.0 | 95.8 | 96.2 | 108.3 | 99.7 | substantially improved stability | 0.9 | 98.64 | 99.54 | 330 | 
2 | CCOC(=O)Nc1ccc(NCc2ccc(F)cc2)nc1N.O=C(O)/C=C\C(=O)O [Flupirtine maleate A, Flupirtine Maleate Form A, reference compound] | Fine needles | 2.1 | 4.1 | 6.5 | 9.5 | 11.7 | 14.3 | 24.2 |  | 3.11 | 96.18 | 99.27 | 686 | 
3 | CCOC(=O)Nc1ccc(NCc2ccc(F)cc2)nc1N.O=C(O)/C=C\C(=O)O [Flupirtine maleate B, Flupirtine Maleate Form B, reference compound] | Very fine needles | 4.2 | 6.3 | 12.1 | 16.5 | 21.3 | 27.4 | 69.5 |  | 3.22 | 95.92 | 99.12 | 1634 | 
4 | CCOC(=O)Nc1ccc(NCc2ccc(F)cc2)nc1N [Flupirtine propionate, 2-amino-3-carbethoxyamino-6-(4-fluoro-benzylamino)-pyridine propionate] | Hexagons and polygonal plates | 110.0 | 109.4 | 110.3 | 107.4 | 109.6 | 110.9 | 112.2 | substantially improved stability |  |  |  | 306 | completely dissolved
5 | CCOC(=O)Nc1ccc(NCc2ccc(F)cc2)nc1N.O=C(O)C(F)(F)F [Flupirtine triflutate, Flupirtine Triflutate] |  | 98.5 | 115.1 | 108.0 | 107.7 |  |  |  |  |  |  |  |  | completely dissolved
